Experimental findings from ChEMBL document CHEMBL4732090, “Preparation of new 1,3-dibenzyl tetrahydropyridinylidene ammonium salts and their antimicrobial and anticellular activities” (Eur J Med Chem, 2021) are described below.

The IC50 is the midpoint of a concentration-inhibition curve. For orientation: inhibition means the change of the read-out against control, counted positive when it falls.

The test system of data set [1] is Plasmodium falciparum. Kind of data set: Antiplasmodial activity against Plasmodium falciparum NF54 erythrocytic stages assessed as reduction in [3H]hypoxanthine incorporation measured after 48 hrs by liquid scintillation counting method. The data set is classed as functional, organism-based.
Data set [2] relates to Plasmodium falciparum. In words: Antiplasmodial activity against chloroquine and pyrimethamine resistant Plasmodium falciparum K1 strain. The class given is functional, organism-based.
Data set [3] in a line: Selectivity index, ratio of IC50 for rat L6 cells to IC50 for Plasmodium falciparum NF54. The data set is classed as toxicity. As to conditions: read-out: Ratio IC50.
Data set [4] is described as follows: Selectivity index, ratio of IC50 for rat L6 cells to IC50 for chloroquine and pyrimethamine resistant Plasmodium falciparum K1. As to conditions: read-out: Ratio IC50. The class given is toxicity.
In data set [5] the test system is Trypanosoma brucei rhodesiense. Kind of data set: Trypanocidal activity against Trypanosoma brucei rhodesiense STIB900 incubated for 70 hrs by Alamar blue assay. The data set is classed as functional, organism-based. To be noted: STIB900, 70 h. On the technique in general: Resazurin is reduced to fluorescent resorufin, in cell work by metabolically active cells.

A short description of data set [6]: Selectivity index, ratio of IC50 for rat L6 cells to IC50 for Trypanosoma brucei rhodesiense STIB900. The class given is toxicity. As to conditions: read-out: Ratio IC50.
The next data set has as its system L6. In words: Cytotoxicity against rat L6 cells after 70 hrs by Alamar blue assay. The data set is classed as cell-based. As to conditions: L6, 70 h, read-out: IC50.
The test system of another data set is Staphylococcus aureus. In words: Antibacterial activity against Staphylococcus aureus ATCC 29213 assessed as diameter of inhibition zone at 10 mg/ml by disk diffusion assay. As to conditions: read-out: DIZ. The data set is classed as functional. On the technique in general: A growth-free zone around the sample is the usual read-out of agar diffusion tests.
The test system of data set [7] is Staphylococcus epidermidis. Kind of data set: Antibacterial activity against Staphylococcus epidermis ATCC 12228 assessed as diameter of inhibition zone at 10 mg/ml by disk diffusion assay. The data set is classed as functional. As to conditions: read-out: DIZ.
The next data set concerns Escherichia coli. Kind of data set: Antibacterial activity against Escherichia coli ATCC 25922 assessed as diameter of inhibition zone at 10 mg/ml by disk diffusion assay. The data set is classed as functional. As to conditions: read-out: DIZ.
Another data set relates to Pseudomonas aeruginosa. In words: Antibacterial activity against Pseudomonas aeruginosa ATCC 27853 assessed as diameter of inhibition zone at 10 mg/ml by disk diffusion assay. The class given is functional. As to conditions: read-out: DIZ.
Another data set relates to Candida albicans. Kind of data set: Antifungal activity against Candida albicans ATCC 90028 assessed as diameter of inhibition zone at 10 mg/ml by disk diffusion assay. The class given is functional. To be noted: read-out: DIZ.
A further data set relates to HCT-116. In words: Cytotoxicity against human HCT-116 cells assessed as inhibition of cell growth at 50 uM after 72 hrs by XTT assay relative to control. The data set is classed as functional.
A further data set has as its system U-251. Kind of data set: Cytotoxicity against human U-251 cells assessed as inhibition of cell growth at 50 uM after 72 hrs by XTT assay relative to control. The class given is functional.

With `CC1(C)C(Cc2ccc(C#N)cc2)C(=[N+]2CCCC2)C=CN1Cc1ccccc1` (stereo not given), the IC50 with Plasmodium falciparum [1] is 17 nM; in the data set on Plasmodium falciparum [2] it was 120 nM; in data set [5], 11000 nM; in the data set with L6, above 215000 nM. The selectivity ratio is above 12700 in data set [3], above 1790 in data set [4] and above 19.6 in data set [6]. For the same compound, the zone of inhibition at 10000 µg/mL with Staphylococcus aureus was 14 mm; in data set [7] it was 12 mm; with Escherichia coli, 8 mm; in the data set on Pseudomonas aeruginosa, 5 mm; with Candida albicans it was 0 mm.
For the compound `CC1(C)C(Cc2ccccc2)C(=[N+]2CCCC2)C=CN1Cc1ccccc1` (racemic), the IC50 with Plasmodium falciparum [1] turned out to be 32 nM; in the data set on Plasmodium falciparum [2], 55 nM; in [5], 130 nM; in the data set with L6 it was 48800 nM. For the same compound, the selectivity ratio in [3] came out at 1530; in [4], 888; in [6], 376. The zone of inhibition at 10000 µg/mL was determined as 21 mm with Staphylococcus aureus; 25 mm in data set [7]; 12 mm in the data set with Escherichia coli; 0 mm with Pseudomonas aeruginosa; 0 mm in the data set on Candida albicans.
Take `CC1(C)C(Cc2ccccc2)C(=[N+]2CCCCC2)C=CN1Cc1ccccc1` (racemic): the IC50 in the data set on Plasmodium falciparum [1] was found to be 15 nM; in the data set with Plasmodium falciparum [2] it was 24 nM; in data set [5], 44 nM; in the data set with L6 it was 24600 nM. For the same compound, the results for the selectivity ratio in data set [3], in data set [4] and in [6] were 1640, 1024 and 558, respectively. For the same compound, the zone of inhibition at 10000 µg/mL in the data set on Staphylococcus aureus was determined as 22 mm; in [7], 28 mm; in the data set on Escherichia coli it was 10 mm; in the data set on Pseudomonas aeruginosa it was 0 mm; in the data set with Candida albicans, 0 mm.
For the compound `CC(C)c1ccc(CC2C(=[N+]3CCCC3)C=CN(Cc3ccccc3)C2(C)C)cc1` (racemic), the IC50 was found to be 39 nM in the data set with Plasmodium falciparum [1], 42 nM in data set [5] and 2510 nM with L6. Further, the figures for the selectivity ratio in data set [3] and in data set [6] were 64.4 and 59.8, respectively. Besides, the inhibition at 50 µM with HCT-116 and with U-251 was 100% each time. The zone of inhibition at 10000 µg/mL in the data set with Staphylococcus aureus amounted to 25 mm; in data set [7], 29 mm; in the data set on Escherichia coli, 10 mm; in the data set on Pseudomonas aeruginosa, 6 mm; in the data set with Candida albicans, 21 mm.
`CC1(C)C(Cc2ccc(C(F)(F)F)cc2)C(=[N+]2CCCC2)C=CN1Cc1ccc(C(F)(F)F)cc1` (racemic): the IC50 is 8.3 nM in the data set with Plasmodium falciparum [1], 3.1 nM in the data set with Plasmodium falciparum [2], 420 nM in data set [5] and 26400 nM in the data set with L6. Besides, the selectivity ratio was found to be 3180 in [3], 8520 in data set [4] and 62.9 in [6]. Besides, the inhibition at 50 µM with HCT-116 and in the data set with U-251 was 100% throughout. The zone of inhibition at 10000 µg/mL with Staphylococcus aureus was found to be 22 mm; in [7], 31 mm; in the data set with Escherichia coli, 15 mm; with Pseudomonas aeruginosa it was 7 mm; in the data set with Candida albicans it was 25 mm.
For the compound `CC1(C)C(Cc2ccccc2C(F)(F)F)C(=[N+]2CCCC2)C=CN1Cc1ccccc1` (racemic), the IC50 in the data set on Plasmodium falciparum [1] came out at 85 nM; in data set [5], 100 nM; with L6, 77600 nM. For the same compound, the selectivity ratio in data set [3] was found to be 912; in [6], 776. In addition, the zone of inhibition at 10000 µg/mL in the data set with Staphylococcus aureus amounted to 23 mm; in [7], 22 mm; with Escherichia coli, 13 mm; in the data set with Pseudomonas aeruginosa it was 0 mm; with Candida albicans, 10 mm.
Turning to `CC1(C)C(Cc2ccc(Cl)cc2)C(=[N+]2CCCCC2)C=CN1Cc1ccc(Cl)cc1` (racemic), the IC50 was found to be 3.8 nM with Plasmodium falciparum [1], 0.38 nM in the data set with Plasmodium falciparum [2], 140 nM in data set [5] and 11100 nM in the data set with L6. In addition, the results for the selectivity ratio in [3], in data set [4] and in data set [6] were 2920, 29200 and 79.3, respectively. Besides, the inhibition at 50 µM in the data set on HCT-116 and in the data set with U-251 was 100% throughout. The zone of inhibition at 10000 µg/mL was 22 mm with Staphylococcus aureus; 28 mm in data set [7]; 14 mm in the data set on Escherichia coli; 7 mm in the data set with Pseudomonas aeruginosa; 26 mm in the data set with Candida albicans.
For the compound `CC1(C)C(Cc2c(Cl)cccc2Cl)C(=[N+]2CCCC2)C=CN1Cc1ccc(Cl)cc1` (racemic), the IC50 with Plasmodium falciparum [1] is 3.6 nM; in the data set on Plasmodium falciparum [2] it was 6 nM; in data set [5], 52 nM; in the data set on L6 it was 4530 nM. The results for the selectivity ratio in [3], in data set [4] and in data set [6] were 1260, 755 and 87.1, respectively. The inhibition at 50 µM in the data set with HCT-116 and in the data set with U-251 was 100% in each case. Further, the zone of inhibition at 10000 µg/mL with Staphylococcus aureus worked out at 21 mm; in data set [7], 33 mm; with Escherichia coli, 15 mm; in the data set on Pseudomonas aeruginosa it was 12 mm; with Candida albicans, 20 mm.
For the compound `CC(C)(C)c1ccc(CC2C(=[N+]3CCCC3)C=CN(Cc3ccccc3)C2(C)C)cc1` (racemic), the IC50 is 30 nM in the data set on Plasmodium falciparum [1], 20 nM in data set [5] and 940 nM in the data set on L6. In addition, the selectivity ratio in data set [3] came out at 31.3; in data set [6], 47. In addition, the inhibition at 50 µM in the data set on HCT-116 and in the data set on U-251 was 100% each time. In addition, the zone of inhibition at 10000 µg/mL in the data set with Staphylococcus aureus was 22 mm; in [7] it was 24 mm; in the data set with Escherichia coli, 15 mm; in the data set on Pseudomonas aeruginosa it was 0 mm; in the data set on Candida albicans, 22 mm.
Turning to `CC1(C)C(Cc2ccc(C(F)(F)F)cc2)C(=[N+]2CCCC2)C=CN1Cc1ccccc1` (racemic), the results for the IC50 (in the data set on Plasmodium falciparum [1]; in [5]; in the data set with L6) were 26 nM, 320 nM and 85900 nM, respectively. For the same compound, the selectivity ratio came out at 3300 in data set [3] and 268 in data set [6]. Also, the zone of inhibition at 10000 µg/mL worked out at 22 mm with Staphylococcus aureus; 24 mm in data set [7]; 11 mm with Escherichia coli; 0 mm in the data set with Pseudomonas aeruginosa; 15 mm in the data set on Candida albicans.
For `CC1(C)C(Cc2ccccc2)C(=[N+]2CCCC2)C=CN1Cc1ccc(Cl)cc1` (racemic), the IC50 with Plasmodium falciparum [1] came out at 30 nM; in [5] it was 120 nM; with L6, 37900 nM. Moreover, the selectivity ratio in data set [3] was determined as 1260; in data set [6], 316. In addition, the zone of inhibition at 10000 µg/mL is 22 mm in the data set on Staphylococcus aureus; 29 mm in data set [7]; 13 mm in the data set on Escherichia coli; 0 mm in the data set on Pseudomonas aeruginosa; 20 mm in the data set with Candida albicans.
Turning to `CC1(C)C(Cc2c(Cl)cccc2Cl)C(=[N+]2CCCC2)C=CN1Cc1c(Cl)cccc1Cl` (racemic), the results for the IC50 (with Plasmodium falciparum [1]; in data set [5]; in the data set on L6) were 38 nM, 24 nM and 910 nM, respectively. Besides, the values for the selectivity ratio in data set [3] and in [6] were 23.9 and 37.9, respectively. Moreover, the inhibition at 50 µM in the data set on HCT-116 and with U-251 was 100% throughout. Moreover, the zone of inhibition at 10000 µg/mL with Staphylococcus aureus turned out to be 23 mm; in data set [7] it was 34 mm; with Escherichia coli, 14 mm; in the data set with Pseudomonas aeruginosa, 6 mm; in the data set with Candida albicans, 25 mm.
As to `CC1(C)C(Cc2ccc(Cl)cc2)C(=[N+]2CCCC2)C=CN1Cc1ccc(Cl)cc1` (racemic), the IC50 in the data set with Plasmodium falciparum [1] worked out at 1.4 nM; in the data set on Plasmodium falciparum [2], 1.6 nM; in data set [5] it was 170 nM; in the data set with L6, 12600 nM. Moreover, the values for the selectivity ratio in data set [3], in data set [4] and in data set [6] were 8980, 7860 and 73.9, respectively. Besides, the inhibition at 50 µM in the data set on HCT-116 and with U-251 was 100% throughout. The zone of inhibition at 10000 µg/mL turned out to be 21 mm in the data set with Staphylococcus aureus; 34 mm in data set [7]; 15 mm in the data set on Escherichia coli; 7 mm in the data set on Pseudomonas aeruginosa; 20 mm in the data set on Candida albicans.
As for `CC1(C)C(Cc2ccccc2)C(=[N+]2CCCC2)C=CN1Cc1ccc([N+](=O)[O-])cc1` (racemic), the IC50 with Plasmodium falciparum [1] was found to be 89 nM; in [5], 1030 nM; with L6 it was 206000 nM. Also, the values for the selectivity ratio in [3] and in data set [6] were 2320 and 200, respectively. The zone of inhibition at 10000 µg/mL amounted to 12 mm with Staphylococcus aureus; 14 mm in [7]; 7 mm in the data set on Escherichia coli; 0 mm with Pseudomonas aeruginosa; 0 mm with Candida albicans.
Compound `C[C@@H]1CC[C@H]2[C@@H](C)C(=O)O[C@@H]3O[C@@]4(C)CC[C@@H]1[C@]32OO4` [ARTEMISININ] displayed an IC50 in the data set with Plasmodium falciparum [2] of 3.4 nM. Further, in [4], the selectivity ratio is 132000.
